The target of data set [1] is ClpP1P2 (ClpP1) (Mycobacterium tuberculosis, UniProt P9WPC3+P9WPC5). The data set is classed as biochemical.
Data set [2] relates to Nc1ncnc2c1ncn2[C@@H]1O[C@H](COP(=O)(O)OP(=O)(O)OP(=O)(O)O)[C@@H](O)[C@H]1O. The data set can be described thus: purified protein.

One may read the IC50 as the concentration that gives 50% inhibition. The low end stands for inhibition by little substance, the high end for a need for much substance. Broadly, the Km is the concentration of substrate that gives half-maximal velocity.

ClpP1P2 (ClpP1), sequence (P9WPC5 whole entry, looked up): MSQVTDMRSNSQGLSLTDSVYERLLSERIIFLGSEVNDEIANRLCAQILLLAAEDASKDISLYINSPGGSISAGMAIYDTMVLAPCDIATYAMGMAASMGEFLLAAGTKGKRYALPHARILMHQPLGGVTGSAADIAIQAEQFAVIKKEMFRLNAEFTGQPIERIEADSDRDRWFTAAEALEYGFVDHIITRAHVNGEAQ
ClpP1P2 (ClpP1), sequence (P9WPC3 whole entry, looked up): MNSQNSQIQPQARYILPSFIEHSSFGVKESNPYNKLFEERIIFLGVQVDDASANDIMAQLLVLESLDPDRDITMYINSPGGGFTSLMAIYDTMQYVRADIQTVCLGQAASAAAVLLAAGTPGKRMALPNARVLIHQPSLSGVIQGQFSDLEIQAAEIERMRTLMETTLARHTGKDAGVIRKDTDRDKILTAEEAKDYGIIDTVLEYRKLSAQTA

Molecule `O=c1oc(Cl)c(Cl)c2ccccc12` [DCC, 3,4-Dichloroisocoumarin] registered an IC50 in data set [1] of 80 µM.

For “ClpC1 (Mycobacterium tuberculosis H37Rv)”, the Km in data set [2] is recorded as 1.4 ± 0.1 mM.
